Data on 2 compounds can be found in US20170166979A1, “PERSONALIZED TREATMENT OF CANCER USING FGFR INHIBITORS” (priority 2014, published 2017).

Usually GI50 stands for the concentration giving 50% growth inhibition.

One test has as its system NIH3T3-FGFR1β-MYC cells. The experiment in a line: Xenograft mouse model, tumor volume. The format is in vivo, nude mice. The following applies: 15 mg/kg, q.d., tumors coexpressing FGFR1 and MYC; P<0.001. The protocol:
(§1) FIG. 4. Nude mice, engrafted with retrovirally transduced NIH3T3 cells, received BGJ398 (15 mg/kg, q.d., lower curve) or 5% glucose (upper curve), respectively, upon formation of palpable tumors. Volumes of tumors formed by NIH3T3-FGFR1f3 cells (top) and NIH3T3-FGFR1β-MYC cells (bottom) were assessed every second day and compared by the t test. Error bars display SD of three independent experiments.
(§2) All animal procedures were approved by the local animal protection committee and the local authorities. Transduced NIH3T3 and tumor cells were resuspended in RPMI or DMEM medium and injected (5×10^6 cells per tumor) subcutaneously into the flanks of 8- to 15-week-old male nude mice [Rj:NMRI-nu (nu/nu), Janvier Europe] under 2.5% isoflurane anesthesia.
(§3) To assess the effect of FGFR1 inhibitors in vivo, NVP-BGJ 398 (Novartis) was dissolved in a vehicle solution (33% PEG300, 5% glucose) for xenograft application. Tumor size was monitored every second day by measurement of perpendicular diameters by an external caliper and calculated by use of the modified ellipsoid formula [V=½ (Length×Width 2)]. Oral therapy was started when tumors reached a volume of 100 mm 3. Mice received daily either
(§4) BGJ398 (15 mg/kg) or vehicle solution. After 14 (NIH3T3 FGFR1(3 +MYC), 16 (NIH3T3 EML4-ALK, KRAS G12V), or 25 (NIH3T3 e.V., FGFR1α/β) days of therapy, respectively, mice were sacrificed by intraperitoneal injection of ketamine/xylazine (300/60 mg/kg).

Test [1] has as its system NIH3T3 cells expressing either of the mesenchymal FGFR1 splice variants. The experiment in a line: Xenograft mouse model, tumor volume. The following applies: 15 mg/kg, q.d. The format is in vivo, nude mice. The procedure: as §1, §2, §3, §4
For test [2], the system named is stage IV squamous cell lung cancer with FGFR1 amplification and MYC score of 3. Put plainly: Patient treated with BGJ398 in first-in-humans trial (CT, RECIST 1.1). The following applies: 100 mg. The format is in vivo, human. The source says:
FIG. 11. […] The sample was scored (degrees 0-3) by FGFR1 dual-color FISH (top, normalized copy-number ratio) as well as MYC IHC (bottom, nuclear staining intensity).
FIG. 13. Fused scans of positron emission tomography (PET) and computer tomography (CT) before (top left, baseline) and after the beginning of BGJ389 therapy (top right, 4 weeks). […] Target lesions for evaluation of tumor response are highlighted by red arrows. IHC, immunohistochemistry.
We identified a person with a 70-packper-year smoking history. […] The patient agreed to treatment with BGJ398, a highly specific FGFR1 inhibitor, which was being evaluated in a first-in-humans trial at our center. After cardiac assessment and baseline thoracic computed tomography (CT), treatment with 100 mg BGJ398 was started.

Test [3] relates to FGFR-dependent cell lines. The experiment in a line: Mitochondrial apoptosis mediators upon FGFR inhibition. In kind it is cell-based. The following applies: 1 μmol/L, after 72 hours.
Test [4] relates to FGFR1-MYC cotransduced NIH3T3 cells. The experiment in a line: Induction of apoptosis (Annexin-V/PI, flow cytometry). The conditions noted are these: 1 μmol/L, 72-hour FGFR inhibition. The format is cell-based. The source says:
(§5) FIG. 3. Induction of apoptosis (Annexin-V/PI, flow cytometry) in NIH3T3 cells, (co-) transduced with FGFR1β+/−MYC, by 72-hour FGFR inhibition (PD173074, 1 μmol/L). FGFR-dependent H1581 cells (PD173074, 1 μmol/L) as well as ALK-dependent NIH3T3-EML4-ALK
(§6) cells (TAE684, 1 μmol/L) were used as positive controls.

The test system of test [5] is NIH3T3 cells expressing FGFR1 alone. Described as above. In kind it is cell-based. The following applies: 1 μmol/L, 72-hour FGFR inhibition.
Text: as §5, §6

The test system of test [6] is FGFR-dependent cancer cell lines (H1581, DMS114, and HCC1599). The experiment in a line: FGFR dependency of cancer cell lines (cellular ATP content after 96 hours). In kind it is cell-based. The following applies: FGFR-dependent group: H1581, DMS114, HCC1599. The protocol:
(§7) FIG. 7. Protein expression of MYC was silenced by stable lentiviral transduction of FGFR dependent H1581 cells as well as HCC15, H2882, and HCC95 controls. Knockdown efficiency was validated by immunoblotting for H1581, H2882, and HCC15 cells (top). FGFR dependency was determined by measuring cellular ATP content after 96 hours (bottom).
(§8) FIG. 9. Segregation of FGFR1 amplification with RNA expression levels of MYC Cancer cell lines were divided into an FGFR-dependent (H1581, DMS114, and HCC1599) GI 50<500 nmol/L, PD173074) versus resistant group (A427, H520, H1703, HCC15, H358, HCC95, H187, SW1271, H526, and DMS153 cells). Expression levels were compared by the Student t test. wt, wild-type.

Test [7] concerns resistant group (A427, H520, H1703, HCC15, H358, HCC95, H187, SW1271, H526, and DMS153 cells). Described as above. The format is cell-based. The protocol:
as §7, §8

Test [8] has as its system FGFR1-amplified HCC95 and H520 cells and NRAS-mutant HCC15 cells. Put plainly: Immunoblotting of MYC and cyclin D1 expression upon FGFR inhibition. In kind it is cell-based. The conditions noted are these: 1 μmol/L, 24 hours. The protocol: (§9) FIG. 6. FGFR1-amplified H1581, DMS114, and HCC95 cells as well as HCC15 (NRAS mut) controls were treated with PD173074 (1 μmol/L, 24 hours). Expression levels of MYC, cyclin D1, and actin as well as ERK phosphorylation were monitored by immunoblotting. Con.: positive control NIH3T3-FGFR1β cells.
Background: Immunoblotting shows a protein as a band on a membrane.

For test [9], the system named is FGFR-dependent cell lines H1581 and DMS114. The test is described as above. The format is cell-based. The following applies: 1 μmol/L, within 24 hours. The protocol: as §9
For test [10], the system named is FGFR-dependent H1581 cells. Put plainly: Induction of apoptosis (Annexin-V/PI, flow cytometry). The format is cell-based. The following applies: 1 μmol/L, 72-hour.
Text: as §5
cells (TAE684, 1 μmol/L) were used as positive controls. Resistant HCC15 and NIH3T3-e.V. cells served as negative controls. *, Significant induction of apoptosis.
A general note: Flow cytometry measures light scatter and fluorescence of single cells or particles in a stream.

Entries after “also recorded” stand apart in the source; their conditions may differ. Bounds are passed on as bounds.

Turning to `CCN1CCN(c2ccc(Nc3cc(N(C)C(=O)Nc4c(Cl)c(OC)cc(OC)c4Cl)ncn3)cc2)CC1` [BGJ398], in the test on NIH3T3-FGFR1β-MYC cells, the Tumor regression result is reported as “led to regressions”. For the same compound, the Tumor growth entry in test [1] (oral, nude mice) is recorded as “repressed tumor growth”. In addition, the Tumor shrinkage result in [1] (tumors expressing FGFR1 alone) is “did not induce tumor shrinkage”. Moreover, in test [2], the “Duration of therapy until progressive disease (kidney, RECIST1.1)” value came to 10 months and the Symptoms entry is “improvement of symptoms”. In addition, in test [2] (CT scans after 4 and 8 weeks), the “Response according to RECIST 1.1 criteria” value is “partial response (PR)” and the “Tumor response on CT” value is “tumor regression; also recorded: regression without cavitation of the tumor”.
With `CCN(CC)CCCCNc1ncc2cc(-c3cc(OC)cc(OC)c3)c(NC(=O)NC(C)(C)C)nc2n1` [PD173074], in [3], the “Cytochrome C release” value was “occurred robustly” and the “Loss of the mitochondrial membrane potential” value is “occurred robustly”. Also, the Induction of apoptosis result in test [4] was “induced apoptosis”. Further, the Induction of apoptosis entry in test [5] is on record as “but not in cells expressing FGFR1 alone”. Further, the GI50 in test [6] was less than 0.5 µM. In test [7], the FGFR dependency group result is reported as “resistant”. Further, the “Expression levels (MYC, cyclin D1)” value in test [8] was “remained relatively stable”. Moreover, in test [9], the “Levels of MYC” value is “decreased” and the “Levels of cyclin D1” value was “decreased”. In addition, the Induction of apoptosis result in [10] was “induced apoptosis”.
